This is an account of results in ChEMBL document CHEMBL4024727, “Synthesis and antimycobacterial screening of new thiazolyl-oxazole derivatives” (Eur J Med Chem, 2017).

Holding throughout (assay type): functional
Assay [1] relates to Escherichia coli. The assay is described as follows: Growth inhibition of Escherichia coli NCIM 2576 at 30 ug/ml measured after 8 hrs relative to control. To be noted: NCIM 2576, 8 h, read-out: GI.
Assay [2] relates to Escherichia coli. The assay is described as follows: Growth inhibition of Escherichia coli NCIM 2576 at 10 ug/ml measured after 8 hrs relative to control. To be noted: NCIM 2576, 8 h, read-out: GI.
Assay [3] relates to Escherichia coli. The assay is described as follows: Growth inhibition of Escherichia coli NCIM 2576 at 1 ug/ml measured after 8 hrs relative to control. Conditions: NCIM 2576, 8 h, read-out: GI.
Assay [4] deals with Pseudomonas fluorescens. The experiment in a line: Growth inhibition of Pseudomonas fluorescens NCIM 2059 at 30 ug/ml measured after 8 hrs relative to control. To be noted: NCIM 2059, 8 h, read-out: GI.
Assay [5] concerns Pseudomonas fluorescens. The experiment in a line: Growth inhibition of Pseudomonas fluorescens NCIM 2059 at 10 ug/ml measured after 8 hrs relative to control. To be noted: NCIM 2059, 8 h, read-out: GI.
Assay [6] relates to Pseudomonas fluorescens. The experiment in a line: Growth inhibition of Pseudomonas fluorescens NCIM 2059 at 1 ug/ml measured after 8 hrs relative to control. To be noted: NCIM 2059, 8 h, read-out: GI.
In assay [7] the test system is Staphylococcus aureus. The experiment in a line: Growth inhibition of Staphylococcus aureus NCIM 2602 at 30 ug/ml measured after 12 hrs relative to control. To be noted: NCIM 2602, 12 h, read-out: GI.
Assay [8] has as its system Staphylococcus aureus. The assay is described as follows: Growth inhibition of Staphylococcus aureus NCIM 2602 at 10 ug/ml measured after 12 hrs relative to control. To be noted: NCIM 2602, 12 h, read-out: GI.
Assay [9] concerns Staphylococcus aureus. The experiment in a line: Growth inhibition of Staphylococcus aureus NCIM 2602 at 1 ug/ml measured after 12 hrs relative to control. Conditions: NCIM 2602, 12 h, read-out: GI.
For assay [10], the system named is Bacillus subtilis. The experiment in a line: Growth inhibition of Bacillus subtilis NCIM 2162 at 30 ug/ml measured after 12 hrs relative to control. To be noted: NCIM 2162, 12 h, read-out: GI.
Assay [11] concerns Bacillus subtilis. The assay is described as follows: Growth inhibition of Bacillus subtilis NCIM 2162 at 10 ug/ml measured after 12 hrs relative to control. To be noted: NCIM 2162, 12 h, read-out: GI.
For assay [12], the system named is Bacillus subtilis. The experiment in a line: Growth inhibition of Bacillus subtilis NCIM 2162 at 1 ug/ml measured after 12 hrs relative to control. To be noted: NCIM 2162, 12 h, read-out: GI.
Assay [13] relates to Escherichia coli. The experiment in a line: Antibacterial activity against Escherichia coli NCIM 2576 measured after 8 hrs. To be noted: NCIM 2576, 8 h.
Assay [14] concerns Pseudomonas fluorescens. The experiment in a line: Antibacterial activity against Pseudomonas fluorescens NCIM 2059 measured after 8 hrs. To be noted: NCIM 2059, 8 h.
Assay [15] relates to Staphylococcus aureus. The experiment in a line: Antibacterial activity against Staphylococcus aureus NCIM 2602 measured after 12 hrs. Conditions: NCIM 2602, 12 h.
Assay [16] has as its system Bacillus subtilis. The experiment in a line: Antibacterial activity against Bacillus subtilis NCIM 2162 measured after 12 hrs. To be noted: NCIM 2162, 12 h.
For assay [17], the system named is Mycobacterium tuberculosis. The experiment in a line: Growth inhibition of Mycobacterium tuberculosis H37Ra ATCC 25177 at 30 ug/ml by XTT dye based two-fold dilution method relative to control. To be noted: read-out: GI.
Assay [18] deals with Mycobacterium tuberculosis. The experiment in a line: Growth inhibition of Mycobacterium tuberculosis H37Ra ATCC 25177 at 10 ug/ml by XTT dye based two-fold dilution method relative to control. Conditions: read-out: GI.
The test system of assay [19] is Mycobacterium tuberculosis. The assay is described as follows: Growth inhibition of Mycobacterium bovis BCG ATCC 35743 at 30 ug/ml by nitrate reductase based two-fold dilution assay relative to control. To be noted: BCG str. ATCC 35743, read-out: GI.
The test system of assay [20] is Mycobacterium tuberculosis. The assay is described as follows: Growth inhibition of Mycobacterium bovis BCG ATCC 35743 at 10 ug/ml by nitrate reductase based two-fold dilution assay relative to control. Conditions: BCG str. ATCC 35743, read-out: GI.
Assay [21] has as its system Mycobacterium tuberculosis. The experiment in a line: Growth inhibition of Mycobacterium bovis BCG ATCC 35743 at 1 ug/ml by nitrate reductase based two-fold dilution assay relative to control. Conditions: BCG str. ATCC 35743, read-out: GI.
Assay [22] relates to Mycobacterium tuberculosis. The assay is described as follows: Antitubercular activity against Mycobacterium tuberculosis H37Ra ATCC 25177 dormant stage by XTT dye based two-fold dilution method.
In assay [23] the test system is Mycobacterium tuberculosis. The experiment in a line: Antitubercular activity against Mycobacterium bovis BCG ATCC 35743 dormant stage by nitrate reductase based two-fold dilution assay. Conditions: BCG str. ATCC 35743.

pIC50: −log10 of the molar value. ≈ marks a conversion by molar mass, not a printed value. Some results are limits rather than exact numbers.

As for `CC1(C)S[C@@H]2[C@H](NC(=O)[C@H](N)c3ccccc3)C(=O)N2[C@H]1C(=O)O` [AMPICILLIN], the inhibition of growth at 30 µg/mL worked out at 100% with Escherichia coli [1], 98.8% in the assay on Pseudomonas fluorescens [4], 99.4% with Staphylococcus aureus [7] and 96.8% in the assay on Bacillus subtilis [10]. Besides, the inhibition of growth at 10 µg/mL came out at 97.9% in the assay with Escherichia coli [2], 97.7% with Pseudomonas fluorescens [5], 98.9% with Staphylococcus aureus [8] and 94.5% with Bacillus subtilis [11]. Further, the inhibition of growth at 1 µg/mL with Escherichia coli [3] was found to be 97.5%; with Pseudomonas fluorescens [6] it was 96.4%; in the assay on Staphylococcus aureus [9] it was 98.2%; in the assay with Bacillus subtilis [12], 90%. Also, the MIC against Escherichia coli [13] is 4.18 µM (≈ 1.46 µg/mL); in the assay on Pseudomonas fluorescens [14], 12.5 µM (≈ 4.36 µg/mL); in the assay with Staphylococcus aureus [15], 2.86 µM (≈ 0.999 µg/mL); in the assay with Bacillus subtilis [16], 29.2 µM (≈ 10.2 µg/mL).

In the case of `Cc1ccc(-c2nc(-c3oc(-c4ccc(F)cc4)nc3C)cs2)cc1`, the inhibition of growth at 30 µg/mL turned out to be 5% in assay [17]; 5% in assay [19]; 23.7% in the assay on Escherichia coli [1]; 20.6% with Pseudomonas fluorescens [4]; 22.3% with Staphylococcus aureus [7]; 22% with Bacillus subtilis [10]. For the same compound, the inhibition of growth at 10 µg/mL came to 3% in assay [18]; 5% in assay [20]; 10.5% in the assay on Escherichia coli [2]; 10.4% with Pseudomonas fluorescens [5]; 12.8% in the assay on Staphylococcus aureus [8]; 10.7% in the assay with Bacillus subtilis [11]. Also, the inhibition of growth at 1 µg/mL in [21] turned out to be 3%; in the assay with Escherichia coli [3], 6.65%; in the assay with Pseudomonas fluorescens [6], 2.41%; with Staphylococcus aureus [9], 6.75%; in the assay on Bacillus subtilis [12], 7.61%. Further, the negative-log IC50 (pIC50) in assay [22] and in assay [23] was less than 4.00 each time. Also, the MIC90 in assay [22] and in assay [23] was more than 100 µM each time. In addition, the MIC in the assay with Escherichia coli [13], with Pseudomonas fluorescens [14], in the assay with Staphylococcus aureus [15] and against Bacillus subtilis [16] was more than 100 µM each time.

Consider `Cc1nc(-c2ccc(F)cc2)oc1-c1csc(-c2ccc(F)cc2)n1`, for which the inhibition of growth at 30 µg/mL in assay [17] amounted to 6%; in assay [19] it was 20%; with Escherichia coli [1] it was 62.5%; in the assay with Pseudomonas fluorescens [4], 63.4%; in the assay with Staphylococcus aureus [7] it was 67%; in the assay with Bacillus subtilis [10], 63.8%. Further, the inhibition of growth at 10 µg/mL in [18] amounted to 5%; in assay [20] it was 6%; in the assay with Escherichia coli [2], 59%; in the assay with Pseudomonas fluorescens [5] it was 55.3%; in the assay on Staphylococcus aureus [8], 51.4%; with Bacillus subtilis [11] it was 55.3%. Also, the inhibition of growth at 1 µg/mL in [21] is 3%; in the assay on Escherichia coli [3], 43.8%; in the assay with Pseudomonas fluorescens [6], 40.6%; in the assay with Staphylococcus aureus [9], 43%; with Bacillus subtilis [12] it was 40.5%. Moreover, the pIC50 in assay [22] and in [23] was less than 4.00 in each case. The MIC90 in assay [22] and in [23] was more than 100 µM each time. Also, the MIC in the assay on Escherichia coli [13], in the assay on Pseudomonas fluorescens [14], against Staphylococcus aureus [15] and in the assay with Bacillus subtilis [16] was more than 100 µM in each case.
